{"source": "patent US20210092955A1", "about": "“METHOD OF CONTROLLING HERBICIDE RESISTANT WEEDS IN CROPS” (SUMITIMO CHEMICAL COMPANY, LIMITED, priority 2018, published 2021)", "type_in_all_cases": "in vivo", "key": {"[1]": {"test_system": "Amaranthus palmeri having Gly210 deletion in PPO2", "assay": "Herbicidal effect, foliar spray in greenhouse pots (Example 4609, comparison)", "conditions": "rating 0 to 100; 25 g/ha; foliar spray 216 L/ha; 17 days after treatment; known art comparison", "text": "(§1) Plastic pots each having a diameter of 8 cm and a height of 7 cm were filled with the soil and seedlings of Amaranthus palmeri having a Gly399Ala mutation in PPO2 (originated from Mississippi, USA) were planted. After cultivation in a greenhouse for 31 days, an aqueous spray liquid prepared by diluting a predetermined amount of a commercial saflufenacil formulation (suspension concentrate containing 29.74% of saflufenacil, manufactured by BASF Corp. under the trade name of Sharpen) with water was sprayed uniformly over the weed using a sprayer in an amount of 216 L/ha. Then, the weeds were cultivated in a greenhouse for 17 days, followed by examining the herbicidal effects. For comparison, Amaranthus palmeri having Gly210 deletion in PPO2 (originated from Illinois, USA) and commercially available wild-type Amaranthus palmeri were tested."}, "[2]": {"test_system": "wild-type Amaranthus palmeri", "assay": "Herbicidal effect, foliar spray in greenhouse pots (Example 4609)", "conditions": "rating 0 to 100, 25 g/ha, foliar spray 216 L/ha, 17 days after treatment", "text": "as §1"}, "[3]": {"test_system": "Amaranthus palmeri having a Gly399Ala mutation in PPO2", "assay": "Herbicidal effect, foliar spray in greenhouse pots (Example 4609)", "conditions": "rating 0 to 100; 25 g/ha; foliar spray 216 L/ha; 17 days after treatment", "text": "as §1"}, "[4]": {"test_system": "Amaranthus palmeri having an Arg128Met mutation in PPO2", "assay": "Soil surface treatment on day of sowing weed and soybean (Example 2)", "conditions": "10, 20, 40, or 80 g/ha on soil surface on day of sowing; examined after 21 days", "text": "(§2) Amaranthus palmeri having an Arg128Met mutation in PPO2 and soybean are sown in a plastic pot. On the same day, a compound X is applied to the surface of soil in an amount of 10, 20, 40, or 80 g/ha by spraying 200 L/ha of an aqueous dilution containing the compound X. Then, the weeds and soybean are cultivated in a greenhouse to examine the effects on the weeds and phytotoxic effects on soybean after 21 days."}, "[5]": {"test_system": "Amaranthus palmeri having an Arg128Met mutation in PPO2", "assay": "Foliar treatment 21 days after sowing (Example 3)", "conditions": "10, 20, 40, or 80 g/ha foliar treatment 21 days after sowing; examined 14 days after the treatment", "text": "Amaranthus palmeri having an Arg128Met mutation in PPO2 and soybean are sown in a plastic pot. Then, the weeds and soybean are cultivated in a greenhouse. A compound X is applied in an amount of 10, 20, 40, or 80 g/ha by spraying 200 L/ha of an aqueous dilution containing the compound X to perform foliar treatment 21 days after the sowing. Then, the weeds and soybean are cultivated in a greenhouse to examine the effects on the weeds and phytotoxic effects on soybean 14 days after the treatment."}, "[6]": {"test_system": "Amaranthus palmeri having an Arg128Met mutation in PPO2", "assay": "Soil surface treatment before sowing soybean (Example 1)", "conditions": "10, 20, 40, or 80 g/ha on soil surface on day of weed sowing; soybean sown after 7 days; examined after 14 days", "text": "as §2, with “is” for “and soybean are”, “[…].” for “X.”, “weeds” for “weeds and soybean”, “greenhouse and soybean seeds are sown after 7 days,” for “greenhouse”, “14” for “21”"}, "wild-type waterhemp": {"test_system": "wild-type waterhemp", "assay": "Herbicidal effect, foliar spray in greenhouse pots (Example 4610, comparison)", "conditions": "rating 0 to 100; 100 g/ha; foliar spray 200 L/ha; 4 days after treatment", "text": "(§3) Plastic pots each having a diameter of 8 cm and a height of 7 cm were filled with the soil and seedlings of Amaranthus palmeri having Arg128Gly mutation in PPO2 (originated from Arkansas, USA) were planted. After cultivaited in a greenhouse for 42 days, an aqueous spray liquid prepared by diluting a predetermined amount of trifludimoxazin formulation (emulsifiable concentrate obtained by mixing 20 parts of trifludimoxazin with 80 parts liquid cocktail (5:1 mixture of cyclohexanone and Sorpol 2680X (TOHO Chemical Industry Co., Ltd.))) with water, and its mixture with saflufenacil made by additionally diluting a predetermined amount of commercial saflufenacil formulation (suspension concentrate containing 29.74% of saflufenacil, manufactured by BASF Corp. under the trade name of Sharpen) were separately sprayed over the weed using a sprayer in an amount of 200 L/ha uniformly. Then, the weeds were cultivated in a greenhouse for 4 days, followed by examininig the herbicidal effects on the weeds. For comparison, waterhemp having Gly210 deletion in PPO2 (originated from Illinois, USA), commercially available wild-type waterhemp, and commercially available wild-type Amaranthus palmeri were tested."}, "[7]": {"test_system": "waterhemp having Gly210 deletion in PPO2", "assay": "Herbicidal effect, foliar spray in greenhouse pots (Example 4610, comparison)", "conditions": "rating 0 to 100; 100 g/ha; foliar spray 200 L/ha; 4 days after treatment; known art comparison", "text": "as §3"}, "[8]": {"test_system": "wild-type Amaranthus palmeri", "assay": "Herbicidal effect, foliar spray in greenhouse pots (Example 4610)", "conditions": "rating 0 to 100; 100 g/ha; foliar spray 200 L/ha; 4 days after treatment", "text": "as §3"}, "[9]": {"test_system": "Amaranthus palmeri having Arg128Gly mutation in PPO2", "assay": "Herbicidal effect, foliar spray in greenhouse pots (Example 4610)", "conditions": "rating 0 to 100; 100 g/ha; foliar spray 200 L/ha; 4 days after treatment", "text": "as §3"}}}
{"smiles": "CC(C)N(C)S(=O)(=O)NC(=O)c1cc(-n2c(=O)cc(C(F)(F)F)n(C)c2=O)c(F)cc1Cl", "note": "[Saflufenacil]", "values": [{"measurement": "herbicidal effect, Amaranthus palmeri Gly210 deletion", "setting": "[1]", "value": 65}, {"measurement": "herbicidal effect, Amaranthus palmeri Wild-type", "setting": "[2]; Table 1", "value": 100}, {"measurement": "herbicidal effect, Amaranthus palmeri Wild-type", "setting": "[2]; Table 2", "value": 100}, {"measurement": "herbicidal effect, Amaranthus palmeri Gly399Ala mutation", "setting": "[3]", "value": 100}]}
{"smiles": "CCOC(=O)COc1ncccc1Oc1cc(-n2c(=O)cc(C(F)(F)F)n(C)c2=O)c(F)cc1Cl", "note": "[compound X, Ethyl [3-[2-chloro-4-fluoro-5-(1-methyl-6-trifluoromethyl-2,1-dioxo-1,2,3,1-tetrahydropyrimidine-3-yl)phenoxy]-2-pyridyloxy]acetate]", "values": [{"measurement": "effects on the weeds", "setting": "[4]", "value": "valuable effect"}, {"measurement": "effects on the weeds", "setting": "[5]", "value": "valuable effect"}, {"measurement": "effects on the weeds", "setting": "[6]", "value": "valuable effect"}]}
{"smiles": "C#CCN1C(=O)C(F)(F)Oc2cc(F)c(-n3c(=O)n(C)c(=S)n(C)c3=O)cc21", "note": "[Trifludimoxazin]", "values": [{"measurement": "herbicidal effect, waterhemp Wild-type", "setting": "wild-type waterhemp", "value": 95}, {"measurement": "herbicidal effect, waterhemp Gly210 deletion", "setting": "[7]", "value": 50}, {"measurement": "herbicidal effect, Amaranthus palmeri Wild-type", "setting": "[8]", "value": 90}, {"measurement": "herbicidal effect, Amaranthus palmeri Arg128Gly mutation", "setting": "[9]", "value": 88}]}
